Data set [1] in a line: Stability in dog plasma. Type of data set: in vitro ADME, beagle dog. The settings on record: 37 °C, 453 μg/L. The protocol: A total of 696.5 μL of plasma from each species (healthy mice, rat, dog, monkey, and human) were spiked with 3.5 μL of TPB15 stock solution ([…] in DMSO), resulting in a final TPB15 concentration of 453 μg/L in plasma. The mixture was then aliquoted into three tubes, each with a volume of 200 μL, maintaining a final DMSO concentration of 0.5%. After incubation in a water bath at 37 °C for 0, 30, 60, 90, and 120 min, 100 µL samples were transferred into EP tubes. Subsequently, 10 µL of internal standard working solution were added, followed by vortex mixing. Then, 500 µL of ethyl acetate were added, and the mixture was vortexed again before being centrifuged at 14,800 rpm at 4 °C for 10 min. A total of 400 µL of the supernatant were transferred into a new EP tube and placed in a vacuum concentrator (Bionoon-VAC2) (Bionoon Biotech, Shanghai, China) to dry for 1 h. The dried residue was reconstituted with 100 µL of mobile phase, vortex mixed thoroughly, and centrifuged again at 14,800 rpm at 4 °C for 10 min. A volume of 5 µL of the supernatant was then taken for LC-MS/MS analysis to determine the drug concentration. Additionally, a blank control group was established, in which PBS buffer was used in place of blank plasma in the incubation system.

A short description of data set [2]: Plasma protein binding by ultrafiltration, mouse plasma. In kind it is in vitro ADME, KM mice. The following applies: KM; mouse plasma, 4 to 16 μg/mL; read-out: average plasma protein binding rates, range over concentrations. On the procedure: (§1) To prepare plasma samples of TPB15 at final concentrations of 4, 8, and 16 μg/mL, 1 μL of TPB15 dissolved in dimethyl sulfoxide (DMSO) at low (400 μg/mL), medium (800 μg/mL), and high (1600 μg/mL) concentrations was added to 99 μL of blank plasma obtained from humans, rats, mice, monkeys, and dogs. Each concentration was prepared in six replicates. The samples were then divided into two groups: one for determining the pre-ultrafiltration concentration (Cpre) and the other for measuring the post-ultrafiltration concentration (Ct), following the evaluation of the non-specific binding coefficient (NSB) of TPB15 to the ultrafiltration tubes. For Cpre determination, 10 μL of the sample was mixed with 990 μL of plasma, vortexed thoroughly, and analyzed for drug concentration using the previously reported liquid chromatography–tandem mass spectrometry (LC-MS/MS) method. For Ct determination, the samples were first incubated in a water bath at 37 °C for 3 h. After incubation, they were transferred to ultrafiltration tubes and centrifuged at 14,000 rpm for 20 min at 4 °C using a centrifuge (Sigma 3K-15) from Sigma Laborzentrifugen GmbH (Osterode am Harz, Germany). After centrifugation, 10 μL of the ultrafiltrate was mixed with 990 μL of plasma, vortexed, and analyzed for concentration using the same LC-MS/MS method. The formula for calculating the plasma protein binding rate (PPB) is as follows: PPB (%) = [1 − Ct/(1 − NSB)/Cpre] × 100%. (NSB: non-specific binding coefficient. […]).

The test system of data set [3] is mouse plasma protein. The data set is described as above. Type of data set: in vitro ADME, KM mice. The following applies: 37 °C 3 h. The protocol: as §1

The text below walks through data of paper PMC12030497, “Plasma Protein Binding, Biostability, Metabolite Profiling, and CYP450 Phenotype of TPB15 Across Different Species: A Novel Smoothened Inhibitor for TNBC Therapy” (Pharmaceutics, 2025).

SMILES strings stand for the structures.

For `O=C(Nc1ccc(Cl)c(-c2nnc3c(Cl)cccn23)c1)c1ccc(Cl)nc1Cl` [TPB15], the “Remaining proportion of substrate TPB15 (%) Beagle dog” value in data set [1] (incubation 0 min) is given as 100.0 ± 1.1%; in data set [1] (incubation 30 min) it was 99.3 ± 0.7%; in data set [1] (incubation 60 min) it was 98.9 ± 0.4%; in data set [1] (incubation 90 min), 97.1 ± 1.4%; in data set [1] (incubation 120 min), 98.0 ± 0.8%. The fraction unbound at 3 h in data set [2] is 0.176 to 0.188. Moreover, the “Plasma Protein Binding (%) KM Mice” value in data set [3] (4 μg/mL TPB15, ultrafiltration) was 81.80 ± 0.10%; in data set [3] (8 μg/mL TPB15, ultrafiltration), 81.21 ± 0.34%; in data set [3] (16 μg/mL TPB15, ultrafiltration), 82.40 ± 0.42%.
